{"source": "paper PMC6938345", "about": "“Inhibition of complement activation, myeloperoxidase, NET formation and oxidant activity by PIC1 peptide variants” (PLoS ONE, 2019)", "key": {"[1]": {"test_system": "antibody-initiated complement activation (type O sera + type AB red blood cells)", "assay": "ABO incompatibility hemolytic assay (CH50-type, ex vivo)", "format": "cell-based, human", "conditions": "peptides 1.8 mM", "protocol": "(§1) For hemolytic complement assays, human red blood cells (RBCs) from type AB donors were purified, washed and standardized to 1 × 10^9 cells/ml, as previously described. Human sera from type O donors at a 20% final concentration was combined with 1 mM PIC1 or sarcosine variant peptides and the volume was brought up to 0.15 ml with GVBS^++ and 0.5 ml RBCs. For factor B-depleted sera hemolytic assays, a final of 0.005% factor B depleted sera was incubated with 1 mM PIC1 or sarcosine variant peptides with 0.1 ml antibody-sensitized sheep red blood cells (EA) in a final volume of 0.75 ml GVBS^++. The samples were incubated for 1 hour at 37 °C and then 1.0 ml of GVBS^-—was added to the factor B-depleted samples to stop the reaction. The samples were spun at 3,000 rpm for 5 minutes and the supernatant was collected and read at 412 nm. Values are represented as a percent of the positive control, which consists of human O sera and AB red blood cells in GVBS^++ buffer.\nIn order to evaluate the extent to which the peptide variants inhibit antibody-initiated complement activation, we tested them in two hemolytic assays including an ABO incompatibility ex vivo assay (Fig 1A) and a classical pathway CH50-type assay in factor B-depleted sera (Fig 1B). In the ABO incompatibility hemolytic assay, purified erythrocytes from a ‘type AB+’ donor are incubated with sera from a ‘type O’ subject containing anti-A and anti-B antibodies; peptides were tested at 1.8 mM. […] We then performed a CH50-type hemolytic assay, with antibody-sensitized sheep erythrocytes, isolating the classical pathway by utilizing factor B-depleted sera; peptides were tested at 0.4 mM.\nFig 1 Sarcosine variant inhibition of complement activation in hemolytic assays and C1q binding. A) Inhibition of ABO incompatibility hemolysis in a CH50-type assay. Peptides are at a final concentration of 1.8 mM. […] Data are the means of n = 4 independent experiments + SEM. B) Inhibition of classical complement pathway-mediated hemolysis in factor B-depleted sera in a CH50-type assay. Peptides are at a final concentration of 0.4 mM. Data are the means of n = 4 independent experiments + SEM. C) Binding of increasing concentrations of sarcosine variants to purified C1q in an ELISA-type assay. Data are the means of n = 3 independent experiments ± SEM. D) Half-maximal binding concentrations were calculated for each peptide’s binding curve."}, "[2]": {"test_system": "classical complement pathway (factor B-depleted human sera + antibody-sensitized sheep erythrocytes)", "assay": "Classical pathway CH50-type hemolytic assay in factor B-depleted sera", "format": "cell-based", "conditions": "peptides 0.4 mM, P < 0.001", "protocol": "as §1, with “buffer. […]” for “buffer.”\nFig 1 Sarcosine variant inhibition of complement activation in hemolytic assays and C1q binding. […] D) Half-maximal binding concentrations were calculated for each peptide’s binding curve."}, "[3]": {"test_system": "purified human neutrophils", "assay": "NETosis assay, free DNA by PicoGreen", "format": "cell-based", "conditions": "Average of n = 3; peptide 2 mM", "protocol": "NETosis assays with immune complexes were performed as previously described. Briefly, normal human serum was stimulated with ovalbumin-antiovalbumin immune complexes in GVBS^++ for 30 minutes at 37 °C. This mixture along with 0.05% H2O2 was then added to purified human neutrophils resuspended in RPMI with or without sarcosine variants (2 mM), allowing NETosis to occur. Quantitation of free DNA released from the neutrophils was performed using PicoGreen. Slides were stained with DAPI (Southern Biotech, Birmingham, AL) and the following antibodies, mouse anti-elastase (Invitrogen, Carlsbad, CA) was used with the secondary goat anti-mouse Alexa Fluor 568 (Novus Biologicals, Centennial, CO) and rabbit anti-histone H3 (Abcam, Cambridge MA) with goat anti-rabbit Alexa Fluor 488 (Novus Biologicals) to visualize formation of NETs which were imaged with fluorescence microscopy with an Olympus BX53 microscope.\nIn this assay purified human neutrophils are stimulated with normal human serum activated with ovalbumin-antiovalbumin immune complexes and hydrogen peroxide. Free DNA expressed from the neutrophils is then measured in a PicoGreen assay.\nFig 5 Sarcosine variant inhibition of NET formation. Fluorescence microscopy images of NET formation after neutrophil stimulation with immune complexes (IC) and hydrogen peroxide (H2O2) compared with neutrophil only control. Variant I8 inhibition of NET formation is shown in the third row. Histones are probed with anti-histone antibody (αhistone), neutrophil elastase is probed with anti-neutrophil elastase (αNE) and DNA is stained with DAPI. Representative images are shown. […] Purified human neutrophils were stimulated with 2% normal human sera pre-incubated with ovalbumin-antiovalbumin immune complexes, and 0.05% H2O2. Sarcosine peptides and PIC1 were added to the sera to a final concentration of 2 mM. Data are the means of n = 3 independent experiments + SEM."}}}
{"smiles": "CC[C@H](C)[C@H](N)C(=O)N[C@@H](C)C(=O)N[C@@H](CC(C)C)C(=O)N[C@H](C(=O)N[C@@H](CC(C)C)C(=O)N[C@@H](CCC(=O)O)C(=O)N1CCC[C@H]1C(=O)N(C)CC(=O)N[C@@H](CS)C(=O)N[C@@H](CS)C(=O)N[C@@H](CCC(N)=O)C(=O)N[C@@H](CCC(=O)O)C(=O)N[C@@H](CCCNC(=N)N)C(=O)N[C@@H](C)C(=O)N[C@@H](C)C(=O)O)[C@@H](C)CC", "note": "[I8]", "values": [{"measurement": "ABO hemolysis", "setting": "[1]; Avg of n = 4, concentration basis of PIC1 not stated", "value": "13.50 % of Control"}, {"measurement": "inhibition of ABO incompatible hemolysis (in words)", "setting": "[1]", "value": "to a greater extent than did the PA-dPEG24"}, {"measurement": "decrease of ABO hemolysis more than PA-dPEG24", "setting": "[1]; equimolar basis, P < 0.002", "value": 53, "unit": "%"}, {"measurement": "inhibition of hemolysis more than PA-dPEG24", "setting": "[2]", "value": 75, "unit": "%"}, {"measurement": "PICO green - NETs, free DNA release", "setting": "[3]", "value": 43}]}
